{"source": "patent US11192860B2", "about": "“Co-crystal of an orally available HIF prolyl hydroxylase inhibitor” (Sandoz AG, priority 2017, dated 2021)", "key": {"[1]": {"details": "TGA curves of WO 2014/014835 A2; cited from earlier work"}, "[2]": {"details": "FIGS. 4, 6 and 8 of WO 2014/014835 A2; cited from earlier work"}, "[3]": {"test": "Stability against mechanical stress (dry grinding, PXRD)", "assay_type": "physicochemical", "details": "dry ground 20 minutes, 25 vibrations per second", "method": "A 1.5 mL grinding jar with one ball (5 mm diameter) both made of stainless steel was fed with about 70 mg sample and ground for 20 minutes at a frequency of 25 vibrations per second."}, "[4]": {"test": "Stability against pressure (IR press, PXRD)", "assay_type": "physicochemical", "details": "pressed to a pellet at about 100 kN, ground again", "text": "The pellet was ground again in order to obtain a powder, which was then investigated by PXRD."}, "[5]": {"test": "Differential scanning calorimetry (thermal stability)", "assay_type": "physicochemical", "details": "25 to 250° C. at 10 K/min", "method": "The roxadustat L-proline co-crystal according to the present invention was investigated by DSC, which was performed on a Mettler Polymer DSC R instrument. The sample (2.72 mg) was heated in a 40 microliter aluminium pan with a pierced aluminium lid from 25 to 250° C. at a rate of 10 K/min. Nitrogen (purge rate 50 mL/min) was used as purge gas."}, "[6]": {"test": "Powder dissolution in phosphate buffer pH 6 at 25° C., concentration by HPLC", "assay_type": "physicochemical", "details": "phosphate buffer pH 6, 25° C.", "method": "Powder dissolution experiments were carried out in phosphate buffer pH 6 at 25° C. for form A of roxadustat and the L-proline co-crystal of the present invention. The respective concentrations were determined by HPLC at a wavelength of 254 nm."}, "[7]": {"test": "Stability against temperature and moisture (40° C., 75% RH, PXRD)", "assay_type": "physicochemical", "details": "75% relative humidity, 7 days"}, "[8]": {"test": "Thermogravimetric analysis (mass loss on heating)", "assay_type": "physicochemical", "details": "10 K/min", "method": "The sample (16.28 mg) was heated in a 100 microliter aluminum pan closed with an aluminum lid. The lid was automatically pierced at the beginning of the measurement. The sample was heated from 25 to 250° C. at a rate of 10 K/min. Nitrogen (purge rate 50 mL/min) was used as purge gas.\nFor example mass losses of only about 0.1 weight % up to a temperature of about 180° C., about 0.2 weight % up to a temperature of about 190° C. and about 0.3 weight % up to a temperature of about 200° C. were observed, which further proves the presence of an anhydrous and non-solvated co-crystal."}}}
{"smiles": "Cc1nc(C(=O)NCC(=O)O)c(O)c2ccc(Oc3ccccc3)cc12.Cc1nc(C(=O)NCC(=O)O)c(O)c2ccc(Oc3ccccc3)cc12.O", "note": "[form B]", "values": [{"measurement": "solvent/water loss upon heating (TGA)", "setting": "[1]", "value": "readily lose their solvents/water upon heating"}, {"measurement": "phase transformation during DSC experiments", "setting": "[2]", "value": "at least partially transform to form A"}]}
{"smiles": "Cc1nc(C(=O)NCC(=O)O)c(O)c2ccc(Oc3ccccc3)cc12", "note": "[roxadustat L-proline co-crystal]", "values": [{"measurement": "phase changes according to powder X-ray diffraction", "setting": "[3]", "value": "no phase changes occured"}, {"measurement": "phase changes according to powder X-ray diffraction", "setting": "[4]", "value": "no phase changes occured"}, {"measurement": "thermal events in DSC until melting", "setting": "[5]", "value": "neither phase changes nor desolvation events are detectable until the sample melts"}, {"measurement": "time after which the complex falls apart in aqueous solution into its pure components", "setting": "[6]", "value": "about 5 minutes"}, {"measurement": "Concentration roxadustat (dissolution profile)", "setting": "[6]; 1 min, listed as roxadustat L-prolin co-crystal", "value": 660, "unit": "µg/mL"}, {"measurement": "Concentration roxadustat (dissolution profile)", "setting": "[6]; 5 min, listed as roxadustat L-prolin co-crystal", "value": 30, "unit": "µg/mL"}, {"measurement": "Concentration roxadustat (dissolution profile)", "setting": "[6]; 15 min, listed as roxadustat L-prolin co-crystal", "value": 20, "unit": "µg/mL"}, {"measurement": "Concentration roxadustat (dissolution profile)", "setting": "[6]; 30 min, listed as roxadustat L-prolin co-crystal", "value": 40, "unit": "µg/mL"}, {"measurement": "Concentration roxadustat (dissolution profile)", "setting": "[6]; 60 min, listed as roxadustat L-prolin co-crystal", "value": 100, "unit": "µg/mL"}, {"measurement": "Concentration roxadustat (dissolution profile)", "setting": "[6]; 180 min, listed as roxadustat L-prolin co-crystal", "value": 90, "unit": "µg/mL"}, {"measurement": "phase changes according to powder X-ray diffraction", "setting": "[7]", "value": "no phase changes occurred"}, {"measurement": "TGA mass loss", "setting": "[8]; up to about 180° C.", "value": "about 0.1 weight %"}, {"measurement": "TGA mass loss", "setting": "[8]; up to about 190° C.", "value": "about 0.2 weight %"}, {"measurement": "TGA mass loss", "setting": "[8]; up to about 200° C.", "value": "about 0.3 weight %"}]}
{"smiles": "Cc1nc(C(=O)NCC(=O)O)c(O)c2ccc(Oc3ccccc3)cc12", "note": "[roxadustat form A, [(4-hydroxy-1-methyl-7-phenoxyisoquinoline-3-carbonyl)amino]acetic acid, reference compound]", "values": [{"measurement": "Concentration roxadustat (dissolution profile)", "setting": "[6]; 1 min", "value": 30, "unit": "µg/mL"}, {"measurement": "Concentration roxadustat (dissolution profile)", "setting": "[6]; 5 min", "value": 50, "unit": "µg/mL"}, {"measurement": "Concentration roxadustat (dissolution profile)", "setting": "[6]; 15 min", "value": 60, "unit": "µg/mL"}, {"measurement": "Concentration roxadustat (dissolution profile)", "setting": "[6]; 30 min", "value": 50, "unit": "µg/mL"}, {"measurement": "Concentration roxadustat (dissolution profile)", "setting": "[6]; 60 min", "value": 60, "unit": "µg/mL"}, {"measurement": "Concentration roxadustat (dissolution profile)", "setting": "[6]; 180 min", "value": 70, "unit": "µg/mL"}]}
